Values of other authors as cited in patent US20240325353A1, “COMPOUND FOR TREATMENT OF COGNITIVE DISORDERS” (Syndesi Therapeutics SA, priority 2021, published 2024).
Where two headings read alike, the source gives them in different places.

Tests used:
[1] = in vivo; cited from earlier work
[2] = target: T1, synaptic vesicle glycoprotein 2A (Homo sapiens, UniProt Q7L0J3); conditions: oral 100 mg for 4 days; cited from earlier work
T1 construct: from tissue; host or cells: brain of living healthy male subjects (PET)
T1 sequence (Q7L0J3 whole entry): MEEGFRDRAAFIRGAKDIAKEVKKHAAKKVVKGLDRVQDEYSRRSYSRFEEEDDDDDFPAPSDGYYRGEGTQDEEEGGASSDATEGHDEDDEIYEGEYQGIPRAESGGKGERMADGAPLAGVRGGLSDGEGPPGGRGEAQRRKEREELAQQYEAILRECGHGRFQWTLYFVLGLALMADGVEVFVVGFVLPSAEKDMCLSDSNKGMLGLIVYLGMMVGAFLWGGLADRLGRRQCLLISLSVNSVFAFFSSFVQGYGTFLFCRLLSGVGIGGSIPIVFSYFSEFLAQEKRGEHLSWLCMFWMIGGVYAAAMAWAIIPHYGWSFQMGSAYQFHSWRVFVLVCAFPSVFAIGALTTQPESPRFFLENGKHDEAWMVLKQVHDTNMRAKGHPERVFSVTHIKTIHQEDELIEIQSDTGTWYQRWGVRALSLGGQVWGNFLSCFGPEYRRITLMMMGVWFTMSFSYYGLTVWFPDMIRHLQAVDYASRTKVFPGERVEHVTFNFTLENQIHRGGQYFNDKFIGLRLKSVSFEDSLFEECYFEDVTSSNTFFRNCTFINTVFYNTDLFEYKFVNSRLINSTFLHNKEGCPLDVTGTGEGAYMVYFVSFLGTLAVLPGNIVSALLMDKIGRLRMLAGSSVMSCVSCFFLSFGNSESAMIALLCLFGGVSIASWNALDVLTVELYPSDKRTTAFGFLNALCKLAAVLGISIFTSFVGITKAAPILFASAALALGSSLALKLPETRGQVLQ

SV2A [3] = target: T2, SV2A (Homo sapiens, UniProt Q7L0J3); conditions: cited from earlier work
Target sequence in this assay (Q7L0J3 whole entry, species assumed): as the sequence (Q7L0J3 whole entry) above

SV2A [4] = target: T3, SV2A (Mus musculus, UniProt Q9JIS5); conditions: audiogenic mice; cited from earlier work
T3 construct: host or cells: brain of audiogenic mice
T3 sequence (Q9JIS5 whole entry): as the sequence (Q7L0J3 whole entry) above, with S62A, T71A, E144D, A154T, G440S, S482A, I572V, M634L counted along it

[5] = animals and humans; cited from earlier work
SV2A [6] = target: T2, SV2A; set-up: host or cells: human brain (prediction for patients); conditions: cited from earlier work
Target sequence in this assay (Q7L0J3 whole entry): as the sequence (Q7L0J3 whole entry) above

CC[C@H](C(N)=O)N1CCCC1=O (single isomer, unassigned) [dextrorotatory enantiomer of levetiracetam]
activity in epilepsy [1]: completely lacks activity

CCC[C@@H]1CC(=O)N([C@@H](CC)C(N)=O)C1 [brivaracetam, (2S)-2-[(4R)-2-oxo-4-propyltetrahydro-1H-pyrrol-1-yl] butanamide]
SV2A occupancy at steady state, peak [2]: 82-87%
SV2A occupancy at steady state, trough [2]: 76-82%
affinity of binding to SV2A relative to levetiracetam (SV2A [3]): higher affinity than levetiracetam

CC[C@@H](C(N)=O)N1CCCC1=O [levetiracetam, (S)-(−)-alpha-ethyl-2-oxo-1-pyrrolidine acetamide]
SV2A occupancy needed to protect against clonic seizure (SV2A [4]): ~90%
impact on the cognitive function [5]: no impact on the cognitive function
predicted SV2A occupancy at Cmin and Cmax (SV2A [6]; patients receiving a 1 g daily dose): 80 to 93%
predicted SV2A occupancy at Cmin and Cmax (SV2A [6]; patients receiving a 3 g daily dose): 92 to 98%
